Assay results taken from ChEMBL document CHEMBL4602715, “Efficacy and Tolerability of Pyrazolo[1,5-a]pyrimidine RET Kinase Inhibitors for the Treatment of Lung Adenocarcinoma” (ACS Med Chem Lett, 2020).

Columns and labels:
[1] = Oral bioavailability in BALB/c mouse at 20 mg/kg measured upto 24 hrs by LC-MS/MS analysis; type: ADME, organism-based; details: in vivo
[2] = AUC in BALB/c mouse at 20 mg/kg, po measured upto 24 hrs by LC-MS/MS analysis; type: ADME, organism-based; design: dose 20 mg/kg, time < 24 hr, route oral; details: in vivo
[3] = Cmax in BALB/c mouse at 20 mg/kg, po measured upto 24 hrs by LC-MS/MS analysis; type: ADME, organism-based; design: dose 20 mg/kg, route oral; details: in vivo
[4] = Half life in BALB/c mouse at 20 mg/kg, po measured upto 24 hrs by LC-MS/MS analysis; type: ADME, organism-based; details: in vivo
[5] = Ratio of AUC in BALB/c mouse brain to plasma at 20 mg/kg, po measured upto 24 hrs by LC-MS/MS analysis; type: ADME, organism-based; details: brain and plasma
[6] = Ratio of Cmax in BALB/c mouse brain to plasma at 20 mg/kg, po measured upto 24 hrs by LC-MS/MS analysis; type: ADME, organism-based; details: brain and plasma
[7] = Toxicity in Harlan Foxn1 nude mouse xenografted with rat RIE cells transfected with KIF5B/RET assessed as reduction in body weight at 30 to 60 mg/kg, po qd for 14 days; type: organism-based; details: in vivo, 336 h
[8] = Toxicity in Harlan Foxn1 nude mouse xenografted with rat RIE cells transfected with KIF5B/RET assessed as reddish mottled appearance of lungs at 30 to 60 mg/kg, po qd for 14 days; type: organism-based; details: in vivo, 336 h
[9] = Toxicity in Harlan Foxn1 nude mouse xenografted with rat RIE cells transfected with KIF5B/RET assessed as lung collapse at 30 to 60 mg/kg, po qd for 14 days; type: organism-based; details: in vivo, 336 h
[10] = Toxicity in Harlan Foxn1 nude mouse xenografted with rat RIE cells transfected with KIF5B/RET assessed as signs of hemorrhaging at 30 to 60 mg/kg, po qd for 14 days; type: organism-based; details: in vivo, 336 h
[11] = Toxicity in Harlan Foxn1 nude mouse xenografted with rat RIE cells transfected with KIF5B/RET at 10 mg/kg, po qd for 14 days; type: organism-based; details: in vivo, 336 h
[12] = Toxicity in Harlan Foxn1 nude mouse xenografted with rat RIE cells transfected with KIF5B/RET at 1 to 10 mg/kg, po qd for 10 days; type: organism-based; details: in vivo, 240 h
[13] = Toxicity in NSG mouse xenografted with human LC2/ad cells assessed as body weight loss at 10 mg/kg, po qd for 21 days measured following drug dosing termination on day 24; type: organism-based; details: in vivo, 504 h
[14] = Toxicity in NSG mouse xenografted with human LC2/ad cells assessed as necropsy in kidneys at 10 mg/kg, po qd for 21 days measured following drug dosing termination on day 24; type: organism-based; details: in vivo, 504 h
[15] = Drug uptake in plasma of Harlan Foxn1 nude mouse xenografted with rat RIE cells transfected with KIF5B/RET at 1 to 10 mg/kg, po qd for 10 days by LC-MS/MS analysis; type: ADME, organism-based; details: in vivo, 240 h

## COc1ccc(-c2cnn3c(N)c(-c4ccccc4)c(NC4CC(C)(C)N(C)C(C)(C)C4)nc23)cc1OC.Cl
[1]
  bioavailability: 94%
[2]
  AUC at 24 h: 12 µM·h
[3]
  Cmax: 730 nM
[4]
  half-life: 11 h
[5]
  Kp at 24 h: 0.94
[6]
  Kp at 24 h: 0.81
[7]
  Activity: Toxic
[8]
  Activity: Toxic
[9]
  Activity: Toxic
[10]
  Activity: Toxic
[11]
  Activity: Non-Toxic
[12]
  Activity: Non-Toxic
[13]
  Activity: Toxic
[14]
  Activity: Toxic
[15]
  Drug uptake: Active
